From the supplement of paper PMC5908809

Tests used:
[1] = system: normal NK cells expanded with K562-aAPC; assay: percent inhibition of viability; higher = more inhibition; details: 72 h, IL-2 2.5 ng/mL
Protocol: (§1)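 Drug sensitivity and resistance testing on K562-aAPC-expanded normal NK cells: 5 concentrations (10-fold steps over a 10,000-fold range), 72 h at 37 °C, viability by CellTiter-Glo normalised to DMSO and benzethonium chloride controls; DSS from the fitted curve.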

DERL-7 (IL-2 2.5 ng/mL) [2] = assay: as above; details: 72 h
YT (IL-2 2.5 ng/mL) [3] = assay: as above; details: 72 h
IMC-1 (IL-2 20 ng/mL) [4] = assay: as above; details: 72 h
NKL (IL-2 2.5 ng/mL) [5] = assay: as above; details: 72 h
KAI3 (IL-2 2.5 ng/mL) [6] = assay: as above; details: 72 h
[7] = system: normal primary NK cells, pool 1 (3 donors), resting (IL-2 0 ng/mL); assay: as above; details: 72 h
[8] = system: normal primary NK cells, pool 1 (3 donors) (IL-2 2.5 ng/mL); assay: as above; details: 72 h
[9] = system: normal primary NK cells, pool 3 (3 donors) (IL-2 2.5 ng/mL); assay: as above; details: 72 h
SNK-6 (IL-2 2.5 ng/mL) [10] = assay: as above; details: 72 h
KHYG-1 (IL-2 2.5 ng/mL) [11] = assay: as above; details: 72 h
NK-92 (IL-2 2.5 ng/mL) [12] = assay: as above; details: 72 h
NK-YS (IL-2 2.5 ng/mL) [13] = assay: as above; details: 72 h
[14] = system: normal primary NK cells, pool 2 (3 donors) (IL-2 2.5 ng/mL); assay: as above; details: 72 h
[15] = system: normal NK cells expanded with K562-aAPC; assay: drug sensitivity score (DSS) (DSS units); higher = more sensitive; extreme values may be limits of the assay; details: 72 h; IL-2 2.5 ng/mL
Protocol: as §1

DERL-7 (IL-2 2.5 ng/mL) [16] = assay: as above; details: 72 h
YT (IL-2 2.5 ng/mL) [17] = assay: as above; details: 72 h
IMC-1 (IL-2 20 ng/mL) [18] = assay: as above; details: 72 h
NKL (IL-2 2.5 ng/mL) [19] = assay: as above; details: 72 h
KAI3 (IL-2 2.5 ng/mL) [20] = assay: as above; details: 72 h
[21] = system: normal primary NK cells, pool 1 (3 donors), resting (IL-2 0 ng/mL); assay: as above; details: 72 h
[22] = system: normal primary NK cells, pool 1 (3 donors) (IL-2 2.5 ng/mL); assay: as above; details: 72 h
[23] = system: normal primary NK cells, pool 3 (3 donors) (IL-2 2.5 ng/mL); assay: as above; details: 72 h
SNK-6 (IL-2 2.5 ng/mL) [24] = assay: as above; details: 72 h
KHYG-1 (IL-2 2.5 ng/mL) [25] = assay: as above; details: 72 h
NK-92 (IL-2 2.5 ng/mL) [26] = assay: as above; details: 72 h
NK-YS (IL-2 2.5 ng/mL) [27] = assay: as above; details: 72 h
[28] = system: normal primary NK cells, pool 2 (3 donors) (IL-2 2.5 ng/mL); assay: as above; details: 72 h

`C=CC(=O)Nc1cc2c(Nc3ccc(F)c(Cl)c3)ncnc2cc1OCCCN1CCOCC1` [Canertinib] (max concentration tested 10000 nM) was tested, and the “percent inhibition of viability” value ([1]; 1 nM) was -1.69%, the “percent inhibition of viability” value ([1]; 10 nM) was -1.95% and the “percent inhibition of viability” value ([1]; 100 nM) was -1.57%. The “percent inhibition of viability” value ([1]; 1000 nM) was 28.3%, the “percent inhibition of viability” value ([1]; 10000 nM) was 100% and the “percent inhibition of viability” value (DERL-7 (IL-2 2.5 ng/mL) [2]; 1 nM) was -1.22%. The “percent inhibition of viability” value (DERL-7 (IL-2 2.5 ng/mL) [2]; 10 nM) was 3.31%, the “percent inhibition of viability” value (DERL-7 (IL-2 2.5 ng/mL) [2]; 100 nM) was 7.19% and the “percent inhibition of viability” value (DERL-7 (IL-2 2.5 ng/mL) [2]; 1000 nM) was 46.1%. For the same molecule, the “percent inhibition of viability” value (DERL-7 (IL-2 2.5 ng/mL) [2]; 10000 nM) was 101%, the “percent inhibition of viability” value (YT (IL-2 2.5 ng/mL) [3]; 1 nM) was -5.49% and the “percent inhibition of viability” value (YT (IL-2 2.5 ng/mL) [3]; 10 nM) was -3.57%. For the same molecule, the “percent inhibition of viability” value (YT (IL-2 2.5 ng/mL) [3]; 100 nM) was 3.25%, the “percent inhibition of viability” value (YT (IL-2 2.5 ng/mL) [3]; 1000 nM) was 14.8% and the “percent inhibition of viability” value (YT (IL-2 2.5 ng/mL) [3]; 10000 nM) was 103%. For the same molecule, the “percent inhibition of viability” value (IMC-1 (IL-2 20 ng/mL) [4]; 1 nM) was -13.9%, the “percent inhibition of viability” value (IMC-1 (IL-2 20 ng/mL) [4]; 10 nM) was -4.18% and the “percent inhibition of viability” value (IMC-1 (IL-2 20 ng/mL) [4]; 100 nM) was -9.88%. For the same molecule, the “percent inhibition of viability” value (IMC-1 (IL-2 20 ng/mL) [4]; 1000 nM) was -11.9%, the “percent inhibition of viability” value (IMC-1 (IL-2 20 ng/mL) [4]; 10000 nM) was 99.7% and the “percent inhibition of viability” value (NKL (IL-2 2.5 ng/mL) [5]; 1 nM) was -12.1%. For the same molecule, the “percent inhibition of viability” value (NKL (IL-2 2.5 ng/mL) [5]; 10 nM) was -11.6%, the “percent inhibition of viability” value (NKL (IL-2 2.5 ng/mL) [5]; 100 nM) was -5.5% and the “percent inhibition of viability” value (NKL (IL-2 2.5 ng/mL) [5]; 1000 nM) was 34.5%. The “percent inhibition of viability” value (NKL (IL-2 2.5 ng/mL) [5]; 10000 nM) was 106%, the “percent inhibition of viability” value (KAI3 (IL-2 2.5 ng/mL) [6]; 1 nM) was -7.79% and the “percent inhibition of viability” value (KAI3 (IL-2 2.5 ng/mL) [6]; 10 nM) was -2.37%. For the same molecule, the “percent inhibition of viability” value (KAI3 (IL-2 2.5 ng/mL) [6]; 100 nM) was 3.26%, the “percent inhibition of viability” value (KAI3 (IL-2 2.5 ng/mL) [6]; 1000 nM) was 43.7% and the “percent inhibition of viability” value (KAI3 (IL-2 2.5 ng/mL) [6]; 10000 nM) was 104%. The “percent inhibition of viability” value ([7]; 1 nM) was 2.65%, the “percent inhibition of viability” value ([7]; 10 nM) was 15.7% and the “percent inhibition of viability” value ([7]; 100 nM) was 18.4%. The “percent inhibition of viability” value ([7]; 1000 nM) was 74.2%, the “percent inhibition of viability” value ([7]; 10000 nM) was 97% and the “percent inhibition of viability” value ([8]; 1 nM) was -5.89%. For the same molecule, the “percent inhibition of viability” value ([8]; 10 nM) was 6.82%, the “percent inhibition of viability” value ([8]; 100 nM) was 13.3% and the “percent inhibition of viability” value ([8]; 1000 nM) was 76.1%. The “percent inhibition of viability” value ([8]; 10000 nM) was 99.2%, the “percent inhibition of viability” value ([9]; 1 nM) was -4.75% and the “percent inhibition of viability” value ([9]; 10 nM) was 1.46%. The “percent inhibition of viability” value ([9]; 100 nM) was 0.7%, the “percent inhibition of viability” value ([9]; 1000 nM) was 34.3% and the “percent inhibition of viability” value ([9]; 10000 nM) was 99.2%. For the same molecule, the “percent inhibition of viability” value (SNK-6 (IL-2 2.5 ng/mL) [10]; 1 nM) was -13%, the “percent inhibition of viability” value (SNK-6 (IL-2 2.5 ng/mL) [10]; 10 nM) was -20.2% and the “percent inhibition of viability” value (SNK-6 (IL-2 2.5 ng/mL) [10]; 100 nM) was -15.9%. The “percent inhibition of viability” value (SNK-6 (IL-2 2.5 ng/mL) [10]; 1000 nM) was 2.62%, the “percent inhibition of viability” value (SNK-6 (IL-2 2.5 ng/mL) [10]; 10000 nM) was 99.5% and the “percent inhibition of viability” value (KHYG-1 (IL-2 2.5 ng/mL) [11]; 1 nM) was -9.72%. For the same molecule, the “percent inhibition of viability” value (KHYG-1 (IL-2 2.5 ng/mL) [11]; 10 nM) was -6.52%, the “percent inhibition of viability” value (KHYG-1 (IL-2 2.5 ng/mL) [11]; 100 nM) was -7.64% and the “percent inhibition of viability” value (KHYG-1 (IL-2 2.5 ng/mL) [11]; 1000 nM) was 4.13%. The “percent inhibition of viability” value (KHYG-1 (IL-2 2.5 ng/mL) [11]; 10000 nM) was 105%, the “percent inhibition of viability” value (NK-92 (IL-2 2.5 ng/mL) [12]; 1 nM) was 3.42% and the “percent inhibition of viability” value (NK-92 (IL-2 2.5 ng/mL) [12]; 10 nM) was 2.68%. The “percent inhibition of viability” value (NK-92 (IL-2 2.5 ng/mL) [12]; 100 nM) was 6.81%, the “percent inhibition of viability” value (NK-92 (IL-2 2.5 ng/mL) [12]; 1000 nM) was 39.8% and the “percent inhibition of viability” value (NK-92 (IL-2 2.5 ng/mL) [12]; 10000 nM) was 104%. For the same molecule, the “percent inhibition of viability” value (NK-YS (IL-2 2.5 ng/mL) [13]; 1 nM) was -6.82%, the “percent inhibition of viability” value (NK-YS (IL-2 2.5 ng/mL) [13]; 10 nM) was -1.19% and the “percent inhibition of viability” value (NK-YS (IL-2 2.5 ng/mL) [13]; 100 nM) was -0.2%. The “percent inhibition of viability” value (NK-YS (IL-2 2.5 ng/mL) [13]; 1000 nM) was 14.6%, the “percent inhibition of viability” value (NK-YS (IL-2 2.5 ng/mL) [13]; 10000 nM) was 103% and the “percent inhibition of viability” value ([14]; 1 nM) was -7.41%. The “percent inhibition of viability” value ([14]; 10 nM) was -1.65%, the “percent inhibition of viability” value ([14]; 100 nM) was 8.39% and the “percent inhibition of viability” value ([14]; 1000 nM) was 58.4%. For the same molecule, the “percent inhibition of viability” value ([14]; 10000 nM) was 96.8%, the drug sensitivity score [15] was 9.72 and the drug sensitivity score (DERL-7 (IL-2 2.5 ng/mL) [16]) was 10.9. It also gave a drug sensitivity score (YT (IL-2 2.5 ng/mL) [17]) of 8.07, a drug sensitivity score (IMC-1 (IL-2 20 ng/mL) [18]) of 4.78 and a drug sensitivity score (NKL (IL-2 2.5 ng/mL) [19]) of 10.3. It also gave a drug sensitivity score (KAI3 (IL-2 2.5 ng/mL) [20]) of 11.2, a drug sensitivity score [21] of 16.2 and a drug sensitivity score [22] of 15.9. For the same molecule, the drug sensitivity score [23] was 10.3, the drug sensitivity score (SNK-6 (IL-2 2.5 ng/mL) [24]) was 5.87 and the drug sensitivity score (KHYG-1 (IL-2 2.5 ng/mL) [25]) was 6.47. For the same molecule, the drug sensitivity score (NK-92 (IL-2 2.5 ng/mL) [26]) was 10.8, the drug sensitivity score (NK-YS (IL-2 2.5 ng/mL) [27]) was 8.03 and the drug sensitivity score [28] was 12.6.
